For 15 molecules, EC50 and IC50 results are on record in patent publication US8324268B2, “Substituted furancarboxamides, and use thereof” (AiCuris GmbH & Co. KG, priority 2008, dated 2012).

One assay relates to HIV-1LAI. As to the kind of experiment: H9 assay with wild-type HIV-1 (HIV-1LAI supernatant infection, AlamarBlue). Format: cell-based. The settings on record: Human immunodeficiency virus 1, H9 cells, 10% FCS. How it is done:
For the mixture for a 96-well MTP, 3 million PBLs are pelleted, suspended in 1 ml of RPMI 1640 medium/10% FCS and incubated together with a suitable amount of HIV-1LAI (NIH AIDS Research & Reference Reagent Program, Germantown, USA) at 37° C. for 2 hours (pellet infection). Unadsorbed viruses are subsequently washed out with PBS, and the infected cells are pelleted again and suspended in 18 ml of RPMI 1640 medium/10% FCS/interleukin-2 (40 U/ml). 180 μl thereof are pipetted into each well of a white 96-well MTP with 20 μl of test substance in suitable dilution. Alternatively, after preparation of the substance dilutions in the MTP, the HIV is pipetted in together with the cells and is not washed out again (supernatant infection). In order to avoid edge effects, the wells at the edge of the MTP are not used for substance dilutions. The second vertical row of the MTP contains only infected cells (virus control) and the eleventh vertical row only uninfected cells (cell control), in each case in RPMI 1640 medium/10% FCS/interleukin-2 (40 U/ml). The other wells of the MTP contain the compounds of the invention in various concentrations starting from the third vertical row, from which the test substances are diluted in 3-fold steps up to the tenth vertical row 3^7-fold. The test substances are dissolved in DMSO, whereby the final DMSO concentration in the test mixture is 1%. The test mixtures are incubated at 37° C./5% CO2. After 5 and 7 days, 50 μl of cell-free supernatant are removed from each well to determine the amount of p24 present by means of a p24 ELISA (HIV-1 p24^CA Antigen Capture Assay Kit, NCI-Frederick Cancer Research and Development Center, Frederick, USA). From the resulting values of the photometric evaluation (450/620 nm) the EC50 values of the test substances are determined as the concentration at which the amount of p24 is 50% of the untreated infected cells.
Alternatively, H9 cells (ATCC, Wesel, Germany) are employed instead of PBLs for testing the test substances. H9 cells are incubated in RPMI 1640 medium with 2% or 10% FCS as a HIV-ILAI supernatant infection at 37° C./5% CO2, (20 μl of substance dilution and 80 μl of cells/virus per well) in accordance with the pattern described above for 5 days. Subsequently, 10 μl of AlamarBlue® (Invitrogen, Karlsruhe, Germany) are added to each well, and the MTPs are incubated at 37° C. for 3 hours before the fluorimetric evaluation takes place (544/590 nm). The resulting values are about 40 000 for the untreated uninfected cells and about 7000 for the untreated infected cells. In the low concentration range, the EC50 values of the test substances are determined as the concentration at which the fluorescence is 50% of the untreated uninfected cells (in each case subtracting the values of the untreated infected cells). In addition, in the high concentration range, the CC50 values of the test substances are determined as the concentration at which the fluorescence is 50% of the untreated uninfected cells (in each case subtracting the values of the untreated infected cells).
(Resazurin is reduced to fluorescent resorufin, in cell work by metabolically active cells.)

For a further assay, the system named is HIV-1NL4-3 wt. Nature of the assay: Light assay with wild-type HI reporter virus in MT4 7F2 cells. Format: cell-based. Conditions: Human immunodeficiency virus 1, 2% FCS. How it is done: (§1) For the mixture for a 96-well MTP, 3 million MT4 7F2 cells are pelleted, suspended in 1 ml of RPMI 1640 medium without phenol red (Invitrogen, Karlsruhe, Germany)/10% FCS/10% AIM-V (Invitrogen, Karlsruhe, Germany) and incubated together with a suitable amount of the corresponding HIV-1NL4-3 reporter virus at 37° C. for 2 hours (pellet infection). Unadsorbed viruses are subsequently washed out with PBS, and the infected cells are pelleted again and suspended in 8 ml of RPMI 1640 medium without phenol red/2% or 10% FCS/10% AIM-V. 80 μl thereof are pipetted into each well of a white 96-well MTP with 20 μl of test substance in suitable dilution. To avoid edge effects, the wells on the edge of the MTP are not used for substance dilutions. The second vertical row of the MTP contains only infected cells (virus control) and the eleventh vertical row only uninfected cells (cell control), in each case in RPMI 1640 medium without phenol red/2% or 10% FCS/10% AIM-V. The other wells of the MTP contain the compounds of the invention in various concentrations starting from the third vertical row, from which the test substances are diluted in 3-fold steps up to the tenth vertical row 3^7-fold. The test substances are dissolved in DMSO, whereby the final DMSO concentration in the test mixture is 1%. The test mixtures are incubated at 37° C./5% CO2 for five days and, after the addition of 15 μl of Lu164 substrate (5 mg/ml coelenterazine dissolved in 30 μM glutathione/DMSO, 100 mM NaCl, 1M MES, 100 mM glutathione), evaluated by luminometry. The resulting values are in the region of 1 000 000 RLUs (relative light units) for the virus control and 300 to 400 RLUs for the cell control. The EC50 values of the test substances are determined as the concentration at which the virus replication measured in RLUs is 50% of the untreated infected cells.

Another assay has as its system HIV-1NL4-3 K103N-Y181C. Nature of the assay: Light assay with inhibitor-resistant HI reporter virus in MT4 7F2 cells. Conditions: Human immunodeficiency virus 1, read-out: EC50 (nM) MT4 7F2 cells HIV-1NL4-3 K103N-Y181C 2% FCS. Format: cell-based. How it is done: as §1
The next assay has as its target T1, reverse transcriptase (Human immunodeficiency virus type 1 group M subtype B, UniProt P03366).
T1 construct: negative control (mixture without reverse transcriptase); purchased Roche Diagnostics GmbH, Mannheim, Germany
As to the kind of experiment: Biochemical reverse transcriptase assay (Reverse Transcriptase Assay, colorimetric, Roche). The settings on record: read-out: IC50 (nM) RT assay. Here is the method: The “Reverse Transcriptase Assay, colorimetric” (Roche Diagnostics GmbH, Mannheim, Germany) is used in accordance with the manufacturer's information. The test substances are dissolved in DMSO and are used in the test diluted in 5-fold steps (final DMSO concentration 1%). The resulting values of the photometric evaluation (405/492 nm) are less than 0.1 for the negative control (mixture without reverse transcriptase) and are in the region of 1.5 for the positive control (mixture without test substance). The IC50 values of the test substances are determined as the concentration of the test substance dilution at which the measured optical density is 50% of the positive control.

As a reminder, the EC50 is the concentration needed to bring the measured effect to its halfway point. As for `O=C(c1cc(-c2cc(F)cc(Cl)c2)c(-c2ccc(F)c(Cl)c2)o1)N1CCSC1` [Example 2, [5-(3-Chloro-4-fluorophenyl)-4-(3-chloro-5-fluorophenyl)furan-2-yl](1,3-thiazolidin-3-yl)methanone], the EC50 came to 135 nM with HIV-1LAI, 40 nM in the assay on HIV-1NL4-3 wt and 1620 nM with HIV-1NL4-3 K103N-Y181C.
Consider `O=C1CN(C(=O)c2cc(-c3cccc(Cl)c3)c(-c3ccc(F)c(Cl)c3)o2)CN1` [Example 25, 1-{[5-(3-Chloro-4-fluorophenyl)-4-(3-chlorophenyl)furan-2-yl]carbonyl}imidazolidin-4-one], for which the EC50 in the assay with HIV-1LAI stood at 225 nM; with HIV-1NL4-3 wt it was 18 nM; in the assay with HIV-1NL4-3 K103N-Y181C, 250 nM.
The term IC50 denotes the midpoint of a concentration-inhibition curve. As to `O=C1CN(C(=O)c2cc(-c3cccc(Cl)c3)c(-c3cccc(Cl)c3)o2)CCN1` [Example 30, 4-{[4,5-Bis(3-chlorophenyl)furan-2-yl]carbonyl}piperazin-2-one], the IC50 on reverse transcriptase is 750 nM. Moreover, the EC50 is 200 nM in the assay with HIV-1LAI, 25 nM in the assay with HIV-1NL4-3 wt and 650 nM in the assay with HIV-1NL4-3 K103N-Y181C.
Take `Cc1cccc(-c2oc(C(=O)N3CCNC(=O)C3)cc2-c2cccc(Cl)c2)c1` [Example 18, 4-{[4-(3-Chlorophenyl)-5-(3-methylphenyl)furan-2-yl]carbonyl}piperazin-2-one]: the EC50 with HIV-1LAI was found to be 200 nM; in the assay with HIV-1NL4-3 wt it was 45 nM; in the assay with HIV-1NL4-3 K103N-Y181C it was 300 nM.
For `N#Cc1cccc(-c2oc(C(=O)N3CCNC(=O)C3)cc2-c2cc(F)cc(Cl)c2)c1` [Example 8, 3-{3-(3-Chloro-5-fluorophenyl)-5-[(3-oxopiperazin-1-yl)carbonyl]furan-2-yl}benzenecarbonitrile], the EC50 was found to be 7 nM with HIV-1LAI, 1 nM with HIV-1NL4-3 wt and 160 nM in the assay on HIV-1NL4-3 K103N-Y181C.
Regarding `O=C1CN(C(=O)c2cc(-c3cc(F)cc(F)c3)c(-c3cccc(Cl)c3)o2)CCN1` [Example 17, 4-{[5-(3-Chlorophenyl)-4-(3,5-difluorophenyl)furan-2-yl]carbonyl}piperazin-2-one], the EC50 in the assay on HIV-1LAI was 135 nM; in the assay on HIV-1NL4-3 wt, 6 nM; in the assay on HIV-1NL4-3 K103N-Y181C, 350 nM.
With `N#Cc1cc(F)cc(-c2cc(C(=O)N3CNC(=O)C3)oc2-c2cccc(Cl)c2)c1` [Example 32, 3-{2-(3-Chlorophenyl)-5-[(4-oxoimidazolidin-1-yl)carbonyl]furan-3-yl}-5-fluorobenzenecarbonitrile], the EC50 turned out to be 70 nM with HIV-1LAI, 2 nM in the assay on HIV-1NL4-3 wt and 150 nM in the assay on HIV-1NL4-3 K103N-Y181C.
With `N#Cc1cc(F)cc(-c2cc(C(=O)N3CNC(=O)C3)oc2-c2ccc(F)c(Cl)c2)c1` [Example 31, 3-{2-(3-Chloro-4-fluorophenyl)-5-[(4-oxoimidazolidin-1-yl)carbonyl]furan-3-yl}-5-fluorobenzenecarbonitrile], the EC50 in the assay with HIV-1LAI worked out at 80 nM; in the assay on HIV-1NL4-3 wt, 8 nM; in the assay on HIV-1NL4-3 K103N-Y181C, 80 nM.
Take `N#Cc1cc(-c2oc(C(=O)N3CNC(=O)C3)cc2-c2cc(F)cc(Cl)c2)ccc1F` [Example 23, 5-{3-(3-Chloro-5-fluorophenyl)-5-[(4-oxoimidazolidin-1-yl)carbonyl]furan-2-yl}-2-fluorobenzenecarbonitrile]: the figures for the 50% effective concentration (EC50) in the assay with HIV-1LAI, in the assay on HIV-1NL4-3 wt and with HIV-1NL4-3 K103N-Y181C were 18 nM, 2 nM and 100 nM, respectively.
For the molecule `Cc1cc(-c2oc(C(=O)N3CCNC(=O)C3)cc2-c2cccc(Cl)c2)ccc1F` [Example 21, 4-{[4-(3-Chlorophenyl)-5-(4-fluor-3-methylphenyl)furan-2-yl]carbonyl}piperazin-2-one], the EC50 with HIV-1LAI stood at 200 nM; with HIV-1NL4-3 wt, 15 nM; in the assay with HIV-1NL4-3 K103N-Y181C it was 120 nM.
Consider `O=C1CN(C(=O)c2cc(-c3cc(F)cc(Cl)c3)c(-c3ccc(F)c(Cl)c3)o2)CN1` [Example 11, 1-{[5-(3-Chloro-4-fluorophenyl)-4-(3-chloro-5-fluorophenyl)furan-2-yl]-carbonyl}imidazolidin-4-one], for which the IC50 on reverse transcriptase was found to be 370 nM. Moreover, the EC50 came to 77 nM in the assay on HIV-1LAI, 20 nM in the assay with HIV-1NL4-3 wt and 255 nM in the assay with HIV-1NL4-3 K103N-Y181C.
For the molecule `N#Cc1cc(-c2oc(C(=O)N3CNC(=O)C3)cc2-c2cccc(Cl)c2)ccc1F` [Example 26, 5-{3-(3-Chlorophenyl)-5-[(4-oxoimidazolidin-1-yl)carbonyl]furan-2-yl}-2-fluorobenzenecarbonitrile], the EC50 amounted to 150 nM in the assay with HIV-1LAI, 20 nM with HIV-1NL4-3 wt and 250 nM in the assay with HIV-1NL4-3 K103N-Y181C.
Take `N#Cc1cccc(-c2oc(C(=O)N3CC[C@@H](O)C3)cc2-c2cc(F)cc(Cl)c2)c1` [Example 10, 3-[3-(3-Chloro-5-fluorophenyl)-5-{[(3R)-3-hydroxypyrrolidin-1-yl]carbonyl}furan-2-yl]benzenecarbonitrile]: the figures for the EC50 in the assay with HIV-1LAI, in the assay with HIV-1NL4-3 wt and with HIV-1NL4-3 K103N-Y181C were 14 nM, 1 nM and 183 nM, respectively.
On to `N#Cc1cc(F)cc(-c2cc(C(=O)N3CCNC(=O)C3)oc2-c2cccc(Cl)c2)c1` [Example 33, 3-{2-(3-Chlorophenyl)-5-[(3-oxopiperazin-1-yl)carbonyl]furan-3-yl}-5-fluorobenzenecarbonitrile], for which the EC50 in the assay on HIV-1LAI was 25 nM; with HIV-1NL4-3 wt, less than 1.5 nM; in the assay on HIV-1NL4-3 K103N-Y181C it was 200 nM.
The matching figures for `O=C1CN(C(=O)c2cc(-c3cc(F)cc(Cl)c3)c(-c3cccc(Cl)c3)o2)CN1` [Example 16, 1-{[4-(3-Chloro-5-fluorophenyl)-5-(3-chlorophenyl)furan-2-yl]carbonyl}imidazolidin-4-one]: 75 nM, 2 nM and 200 nM.
